Laboratory results: paper PMC8224038, “Anti-Leukemic Properties of Aplysinopsin Derivative EE-84 Alone and Combined to BH3 Mimetic A-1210477” (Marine Drugs, 2021)
Read-outs that look alike come from different tables or passages of the source.

Assays:
PBMCs = test: Toxicity test in nonproliferating and proliferating PBMCs (trypan blue); type: cell-based, human; conditions: 24, 48, 72 h
Experimental: Peripheral blood mononuclear cells (PBMCs) were isolated by density gradient centrifugation using Ficoll-Hypaque (GE Healthcare, Roosendaal, The Netherlands) from freshly collected buffy coats as previously described, obtained from healthy adult human volunteers (Red Cross, Luxembourg City, Luxembourg) after ethical approval as well as written informed consent from each volunteer. After isolation, cells were incubated overnight at 2 × 10^6 cells/mL in RPMI 1640 (supplemented with 1% antibiotic–antimycotic and 10% FCS (BioWhittaker, Verviers, Belgium) at 37 °C and 5% CO2 in a humidified atmosphere. The day after, cell concentration was adjusted at 1 × 10^6 cells/mL using the same fresh complete medium and then treated as indicated.
(§1) Cell proliferation and viability were assessed by the trypan blue exclusion method (Lonza), and viable cells were counted using a hematocytometer (Marienfeld, Lauda-Königshofen, Germany). Differential toxicity was calculated by comparing the viability of RPMI 1788 cells to the viability of cancer cells (normal/cancer cells). The difference in viability was expressed in terms of fold change.

K562 cells [1] = test: Annexin V APC/PI staining quantified by FACS; type: cell-based, human
From the text: The percentage of apoptotic cells was quantified as the fraction of cells showing fragmented nuclei, as assessed by fluorescence microscopy (Nikon, Tokyo, Japan) after staining with Hoechst 33342 (Sigma-Aldrich) and propidium iodide (Sigma-Aldrich). In addition, apoptosis was confirmed by Annexin V APC (Biolegend, 640919)/propidium iodide (BD Biosciences, 556547) staining and fluorescence-activated cell sorter (FACS) analysis according to the manufacturer protocol (BD Biosciences, 556547).

K562IR cells [2] = test: Seahorse XFp Glycolysis Stress test (ECAR); type: cell-based, human; conditions: EE-84 100 μM, 72 h
Experimental: (§2) The oxygen consumption rate (OCR) was measured using a Seahorse XFp Cell Mito Stress Assay (#103010-100, Agilent Technologies, Seoul, Korea) ran on a Seahorse XFp analyzer (Agilent Technologies, Seoul, Korea) according to the manufacturer’s instructions. […] Before measurements, plates were equilibrated in a CO2-free incubator at 37 °C for 1 h. The analysis was performed using 1.5 µM oligomycin, 0.5 µM carbonyl cyanide-4-(trifluoromethoxy)phenylhydrazone (FCCP), and 1 µM rotenone/antimycin A as indicated. Data were analyzed using the Seahorse XF Cell Mito Stress Test report generator software (Agilent). The extracellular acidification rate (ECAR) was measured in response to the sequential injection of 10 mM glucose, 2 µM oligomycin (H+-ATP-synthase inhibitor), and 50 mM 2-deoxy-d-glucose (2DG) (hexokinase inhibitor) to detect non-glycolytic acidification, glycolysis, maximal glycolytic capacity, and glycolytic reserve using a Seahorse XFp analyzer with a Glycolysis Stress Test kit (Agilent, Santa Clara, CA, USA).

K562 [3] = test: Seahorse XFp Glycolysis Stress test (ECAR); type: cell-based, human; conditions: K562, EE-84 50 μM, 72 h, vs control
Experimental: as §2

K562IR cells [4] = test: Trypan blue exclusion test, viability; type: cell-based; conditions: Homo sapiens, 24 h
Experimental: as §1

K562 cells [5] = test: Trypan blue exclusion test, viability; type: cell-based, human; conditions: Homo sapiens
Experimental: as §1

RPMI 1788 [6] = test: Trypan blue exclusion test, proliferation (GI50) in noncancerous cells; type: cell-based, human; conditions: Homo sapiens
Experimental: as §1

MEG01 = test: Trypan blue exclusion test, proliferation (GI50); type: cell-based; conditions: Homo sapiens, MEG-01
Experimental: as §1

KBM5IR = test: Trypan blue exclusion test, proliferation (GI50); type: cell-based
Experimental: as §1

KBM5 = test: Trypan blue exclusion test, proliferation (GI50); type: cell-based; conditions: Homo sapiens
Experimental: as §1

K562IR = test: Trypan blue exclusion test, proliferation (GI50); type: cell-based; conditions: Homo sapiens
Experimental: as §1

K562 [7] = test: Seahorse XFp Cell Mito Stress test (OCR); type: cell-based, human; conditions: K562, EE-84 30 µM, 72 h, vs control
Experimental: as §2

K562 cells [8] = test: Trypan blue exclusion test, proliferation (GI50); type: cell-based, human; conditions: Homo sapiens
Experimental: as §1

zebrafish embryos = test: Zebrafish toxicity; conditions: 24 h exposure
Experimental: For toxicity assays, embryos were treated with 0.003% phenylthiourea (PTU) 14 h before the assay to remove pigmentation. Then, 2 h before the assay, the embryo’s shell was eliminated and then treated for up to 24 h with aplysinopsin compounds at indicated concentrations in 24-well plates. Viability and abnormal development were assessed after 24 h of treatment under light microscopy (Carl Zeiss Stereomicroscope DV4, Seoul, Korea). Pictures were taken by fixing embryos onto a glass slide with 3% methylcellulose (Sigma-Aldrich).

RPMI 1788 [9] = test: Trypan blue exclusion test, viability (IC50) in noncancerous cells; type: cell-based, human; conditions: for IC50: Homo sapiens, read-out: IC50 (50% cell death)
Experimental: as §1

[10] = K562, 24 h, EE-84 30 μM, with z-VAD-fmk (50 μM)

With `COc1ccc2c(c1)c(C(=O)C(=O)Nc1sc3c(c1C(C)=O)CC(C)CC3)cn2Cc1ccccc1` (centres unmarked) [EE-84, N-(3-Acetyl-4,5,6,7-Tetrahydro-5-Methylbenzo[b]Thiophen-2-yl)-2-(1-Benzyl-5-Methoxy-1H-Indol-3-yl)-2-Oxoacetamide] the “toxic effects in nonproliferating and proliferating PBMCs” value (PBMCs) was “did not induce toxic effects”, the “AnnV+/PI+ (%)” value (K562 cells [1]; K562, 24 h, EE-84 30 μM) was 2.98 ± 0.23% and the “AnnV+/PI− (%)” value (K562 cells [1]; K562, 24 h, EE-84 30 μM) was 6.00 ± 1.43%. For the same molecule, the “Combined cell death (%)” value (K562 cells [1]; K562, 24 h, EE-84 30 μM) was 8.98 ± 2.14%, the “AnnV+/PI+ (%)” value (K562 cells [1]; [10]) was 3.13 ± 0.21% and the “AnnV+/PI− (%)” value (K562 cells [1]; [10]) was 5.33 ± 1.35%. For the same molecule, the “Combined cell death (%)” value (K562 cells [1]; [10]) was 8.46 ± 1.55%, the “AnnV+/PI+ (%)” value (K562 cells [1]; K562, EE-84 10 μM (Figure 3B)) was 2.50 ± 0.62% and the “AnnV+/PI− (%)” value (K562 cells [1]; K562, EE-84 10 μM (Figure 3B)) was 7.05 ± 1.46%. The “Combined cell death (%)” value (K562 cells [1]; K562, EE-84 10 μM (Figure 3B)) was 9.55 ± 3.22%, the “AnnV+/PI+ (%)” value (K562 cells [1]; K562, EE-84 20 μM (Figure 3B)) was 4.40 ± 0.94% and the “AnnV+/PI− (%)” value (K562 cells [1]; K562, EE-84 20 μM (Figure 3B)) was 5.60 ± 1.98%. The “Combined cell death (%)” value (K562 cells [1]; K562, EE-84 20 μM (Figure 3B)) was 10.00 ± 0.85%, the “AnnV+/PI+ (%)” value (K562 cells [1]; K562, EE-84 30 μM (Figure 3B)) was 7.51 ± 2.70% and the “AnnV+/PI− (%)” value (K562 cells [1]; K562, EE-84 30 μM (Figure 3B)) was 6.65 ± 2.29%. The “Combined cell death (%)” value (K562 cells [1]; K562, EE-84 30 μM (Figure 3B)) was 14.16 ± 0.61%, the “AnnV+/PI+ (%)” value (K562 cells [1]; K562, EE-84 40 μM (Figure 3B)) was 8.97 ± 1.03% and the “AnnV+/PI− (%)” value (K562 cells [1]; K562, EE-84 40 μM (Figure 3B)) was 7.71 ± 2.10%. The “Combined cell death (%)” value (K562 cells [1]; K562, EE-84 40 μM (Figure 3B)) was 16.68 ± 0.89%, the “AnnV+/PI+ (%)” value (K562 cells [1]; K562, EE-84 50 μM (Figure 3B)) was 8.25 ± 1.95% and the “AnnV+/PI− (%)” value (K562 cells [1]; K562, EE-84 50 μM (Figure 3B)) was 8.22 ± 3.12%. For the same molecule, the “glycolytic capacity of ECAR” value (K562IR cells [2]) was “significantly decreased”, the “glycolysis and glycolytic capacity (ECAR)” value (K562 [3]) was “significantly decreased” and the viability at 30 µM (K562IR cells [4]; EE-84 30 µM) was 95.3 ± 0.6%. It also gave a viability at 50 µM (K562IR cells [4]; EE-84 50 µM) of 97 ± 2.7%, a viability at 30 µM (K562 cells [5]; K562, EE-84 30 μM 48 h with Baf-A1 (40 nM) post-treatment for last 8 h, read-out: cell viability) of 89% and a viability at 30 µM (K562 cells [5]; K562, EE-84 30 µM, 24 h, read-out: Viability (24 h)) of 98 ± 1%. The viability at 30 µM (K562 cells [5]; K562, EE-84 30 μM, 48 h, alone, read-out: cell viability) was 98.7%, the viability at 50 µM (K562 cells [5]; K562, EE-84 50 µM, 24 h) was 96 ± 0.7% and the GI50 (RPMI 1788 [6]; RPMI 1788, 24 h) was greater than 50 µM. The GI50 (RPMI 1788 [6]; RPMI 1788, 48 h) was greater than 50 µM, the GI50 (RPMI 1788 [6]; RPMI 1788, 72 h) was 40.1 ± 3.79 µM and the GI50 (MEG01; MEG01, 24 h) was greater than 50 µM. For the same molecule, the GI50 (MEG01; MEG01, 48 h) was 48.4 ± 5.02 µM, the GI50 (MEG01; MEG01, 72 h) was 28.9 ± 1.52 µM and the GI50 (KBM5IR; 24 h) was greater than 100 µM. For the same molecule, the GI50 (KBM5IR; 48 h) was 32.8 ± 2.25 µM, the GI50 (KBM5IR; 72 h) was 29.2 ± 2.05 µM and the GI50 (KBM5; KBM5, 24 h) was greater than 50 µM. It also gave a GI50 (KBM5; KBM5, 48 h) of 34 ± 1.89 µM, a GI50 (KBM5; KBM5, 72 h) of 28.1 ± 1.68 µM and a GI50 (K562IR; 24 h) greater than 100 µM. The GI50 (K562IR; 48 h) was 95.6 ± 16.6 µM, the GI50 (K562IR; 72 h) was 55.1 ± 3.28 µM and the “oxygen consumption rate (OCR)” value (K562 [7]) was “significantly decreased”. The GI50 (K562 cells [8]; K562, 48 h) was 32.2 ± 3.91 µM, the GI50 (K562 cells [8]; K562, 72 h) was 19.1 ± 0.8 µM and the “heart rate of zebrafish” value (zebrafish embryos) was “moderate decrease”. For the same molecule, the “growth (relative body length) of zebrafish” value (zebrafish embryos; concentrations up to 100 µM) was “did not affect”, the “survival rate of zebrafish” value (zebrafish embryos; concentrations up to 100 µM) was “did not affect” and the “morphological changes of zebrafish” value (zebrafish embryos; embryos 24 hpf, different concentrations) was “No significant morphological changes”. The IC50 (RPMI 1788 [9]; RPMI 1788, 24 h) was greater than 50 µM, the IC50 (RPMI 1788 [9]; RPMI 1788, 48 h) was greater than 50 µM and the IC50 (RPMI 1788 [9]; RPMI 1788, 72 h) was greater than 50 µM. For the same molecule, the “differential toxicity RPMI-1788/K562 cells” value (RPMI 1788 [9]; at 40 and 50 µM, viability normal/cancer cells) was “significant differential toxicity” and the “viability of RPMI 1788 cells” value (RPMI 1788 [9]; up to 50 µM, Figure S4B) was “did not significantly affect”.
